Test results published in PubChem BioAssay (NCI).
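GI50 = concentration required for 50% inhibition of growth. TGI is the concentration that stops growth completely.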

How the values were obtained:
Assay in all cases: DTP human tumour cell line panel, 384-well format
[1] = system: A498 renal
[2] = system: ACHN renal
[3] = system: CCRF-CEM leukemia
[4] = system: HCC-2998 colon
[5] = system: HCT-15 colon
[6] = system: HL-60(TB) leukemia
[7] = system: HOP-92 NSCLC
[8] = system: HT29 colon
[9] = system: IGROV1 ovarian
[10] = system: LOX IMVI melanoma
[11] = system: M14 melanoma
[12] = system: MALME-3M melanoma
[13] = system: MCF7 breast
[14] = system: MDA-MB-231 breast
[15] = system: MDA-MB-435 melanoma
[16] = system: MDA-MB-468 breast
[17] = system: MOLT-4 leukemia
[18] = system: NCI-H226 lung
[19] = system: NCI-H322M lung
[20] = system: OVCAR-3 ovarian
[21] = system: OVCAR-4 ovarian
[22] = system: OVCAR-5 ovarian
[23] = system: RPMI-8226 leukemia
[24] = system: RXF 393 renal
[25] = system: SF-295 CNS
[26] = system: SK-MEL-2 melanoma
[27] = system: SK-MEL-28 melanoma
[28] = system: SK-MEL-5 melanoma
[29] = system: SK-OV-3 ovarian
[30] = system: SR leukemia
[31] = system: SW-620 colon
[32] = system: TK-10 renal
[33] = system: UACC-257 melanoma
[34] = system: UACC-62 melanoma
[35] = system: UO-31 renal
[36] = system: 786-0 renal
[37] = system: A549 NSCLC
[38] = system: BT-549 breast
[39] = system: CAKI-1 renal
[40] = system: COLO 205 colon
[41] = system: DU-145 prostate
[42] = system: EKVX NSCLC
[43] = system: HCT-116 colon
[44] = system: HOP-62 NSCLC
[45] = system: HS 578T breast
[46] = system: K-562 leukemia
[47] = system: KM12 colon
[48] = system: NCI-H23 lung
[49] = system: NCI-H460 NSCLC
[50] = system: NCI-H522 lung
[51] = system: OVCAR-8 ovarian
[52] = system: PC-3 prostate
[53] = system: SF-268 CNS
[54] = system: SF-539 CNS
[55] = system: SN12C renal
[56] = system: SNB-19 CNS
[57] = system: SNB-75 CNS
[58] = system: T-47D breast
[59] = system: U251 glioblastoma

Compound: O=C(c1cc(-c2cc3c(cc2C(=O)N2Cc4ccccc4C[C@H]2CN2CCOCC2)OCO3)n2c1CCCC2)N(c1ccccc1)c1ccc(O)cc1
- GI50 [1]: 0.806 µM
- TGI [1]: 3.57 µM
- GI50 [2]: 4.91 µM
- TGI [2]: > 100 µM
- GI50 [3]: 0.255 µM
- TGI [3]: 0.618 µM
- GI50 [4]: 1.27 µM
- TGI [4]: 2.83 µM
- GI50 [5]: 1.75 µM
- TGI [5]: 3.22 µM
- GI50 [6]: 0.146 µM
- TGI [6]: 0.28 µM
- GI50 [7]: 0.502 µM
- TGI [7]: 2.42 µM
- GI50 [8]: 0.419 µM
- TGI [8]: 1.46 µM
- GI50 [9]: 2.77 µM
- TGI [9]: > 100 µM
- GI50 [10]: 1.42 µM
- TGI [10]: 3.25 µM
- GI50 [11]: 0.475 µM
- TGI [11]: 1.7 µM
- GI50 [12]: 0.473 µM
- TGI [12]: 4.71 µM
- GI50 [13]: 0.412 µM
- TGI [13]: 3 µM
- GI50 [14]: 1.19 µM
- TGI [14]: 3.23 µM
- GI50 [15]: 0.144 µM
- TGI [15]: 0.351 µM
- GI50 [16]: 0.214 µM
- TGI [16]: 0.456 µM
- GI50 [17]: 0.182 µM
- TGI [17]: 0.327 µM
- GI50 [18]: 1.01 µM
- TGI [18]: 3.18 µM
- GI50 [19]: 2.43 µM
- TGI [19]: > 100 µM
- GI50 [20]: 0.21 µM
- TGI [20]: 0.497 µM
- GI50 [21]: 1.29 µM
- TGI [21]: 4.43 µM
- GI50 [22]: 2.76 µM
- TGI [22]: 8.21 µM
- GI50 [23]: 0.207 µM
- TGI [23]: 0.437 µM
- GI50 [24]: 0.137 µM
- TGI [24]: 0.484 µM
- GI50 [25]: 2.04 µM
- TGI [25]: 4.28 µM
- GI50 [26]: 0.176 µM
- TGI [26]: 0.704 µM
- GI50 [27]: 0.735 µM
- TGI [27]: 2.6 µM
- GI50 [28]: 0.305 µM
- TGI [28]: 0.928 µM
- GI50 [29]: 0.356 µM
- TGI [29]: 1.46 µM
- GI50 [30]: 0.0773 µM
- TGI [30]: 0.206 µM
- GI50 [31]: 0.444 µM
- TGI [31]: 1.54 µM
- GI50 [32]: 2.83 µM
- TGI [32]: > 100 µM
- GI50 [33]: 0.362 µM
- TGI [33]: 1.25 µM
- GI50 [34]: 0.356 µM
- TGI [34]: 1.82 µM
- GI50 [35]: 4.17 µM
- TGI [35]: > 100 µM

Compound: C#CC[C@H](c1nc2cc(Cl)ccc2c(=O)n1Nc1ccccc1)N(CCCN)C(=O)c1cccc(Cl)c1F
- GI50 [36]: 0.678 µM
- TGI [36]: 1.96 µM
- GI50 [1]: 0.553 µM
- TGI [1]: 1.82 µM
- GI50 [37]: 0.0625 µM
- TGI [37]: 1.88 µM
- GI50 [2]: 1.11 µM
- TGI [2]: 2.32 µM
- GI50 [38]: 0.166 µM
- TGI [38]: 1.08 µM
- GI50 [39]: 0.795 µM
- TGI [39]: 2.03 µM
- GI50 [40]: 0.0303 µM
- TGI [40]: 0.0829 µM
- GI50 [41]: 0.0589 µM
- TGI [41]: 1.06 µM
- GI50 [42]: 0.0896 µM
- TGI [42]: 1.46 µM
- GI50 [43]: 0.0365 µM
- TGI [43]: 1.17 µM
- GI50 [5]: 1.5 µM
- TGI [5]: 2.85 µM
- GI50 [6]: 0.0199 µM
- TGI [6]: 0.0346 µM
- GI50 [44]: 0.354 µM
- TGI [44]: 1.54 µM
- GI50 [7]: 0.674 µM
- TGI [7]: 2.14 µM
- GI50 [45]: 0.0178 µM
- TGI [45]: 0.0448 µM
- GI50 [8]: 0.0361 µM
- TGI [8]: 0.173 µM
- GI50 [9]: 1.03 µM
- TGI [9]: 2.22 µM
- GI50 [46]: 0.0449 µM
- TGI [46]: 0.219 µM
- GI50 [47]: 0.0568 µM
- TGI [47]: 0.67 µM
- GI50 [11]: 0.363 µM
- TGI [11]: 1.44 µM
- GI50 [12]: 0.189 µM
- TGI [12]: 1.76 µM
- GI50 [13]: 0.0231 µM
- TGI [13]: 1.11 µM
- GI50 [14]: 0.063 µM
- TGI [14]: 1.7 µM
- GI50 [15]: 0.0178 µM
- TGI [15]: 0.0359 µM
- GI50 [16]: 0.0183 µM
- TGI [16]: 0.0396 µM
- GI50 [17]: 0.0194 µM
- TGI [17]: 0.0344 µM
- GI50 [18]: 1.11 µM
- TGI [18]: 2.31 µM
- GI50 [48]: 0.0737 µM
- TGI [48]: 0.799 µM
- GI50 [19]: 0.0528 µM
- TGI [19]: 1.52 µM
- GI50 [49]: 0.048 µM
- TGI [49]: 1.12 µM
- GI50 [50]: 0.02 µM
- TGI [50]: 0.0402 µM
- GI50 [20]: 0.0302 µM
- TGI [20]: 0.277 µM
- GI50 [21]: 0.521 µM
- TGI [21]: 2.09 µM
- GI50 [22]: 0.468 µM
- TGI [22]: 1.86 µM
- GI50 [51]: 0.189 µM
- TGI [51]: 1.22 µM
- GI50 [52]: 0.057 µM
- TGI [52]: 1.59 µM
- GI50 [24]: 0.041 µM
- TGI [24]: 0.288 µM
- GI50 [53]: 0.0486 µM
- TGI [53]: 1.45 µM
- GI50 [25]: 0.227 µM
- TGI [25]: 0.65 µM
- GI50 [54]: 0.0273 µM
- TGI [54]: 0.0751 µM
- GI50 [26]: 0.0216 µM
- TGI [26]: 0.0435 µM
- GI50 [27]: 1.29 µM
- TGI [27]: 2.56 µM
- GI50 [28]: 0.0774 µM
- TGI [28]: 0.737 µM
- GI50 [29]: 0.0299 µM
- TGI [29]: 0.648 µM
- GI50 [55]: 0.109 µM
- TGI [55]: 1.86 µM
- GI50 [56]: 0.863 µM
- TGI [56]: 2.16 µM
- GI50 [57]: 0.0589 µM
- TGI [57]: 1.53 µM
- GI50 [30]: 0.0189 µM
- TGI [30]: 0.0343 µM
- GI50 [31]: 0.0652 µM
- TGI [31]: 1.25 µM
- GI50 [58]: 0.0577 µM
- TGI [58]: 1.6 µM
- GI50 [32]: 1.07 µM
- TGI [32]: 2.27 µM
- GI50 [59]: 0.045 µM
- TGI [59]: 1.33 µM
- GI50 [33]: 0.0604 µM
- TGI [33]: 1.9 µM
- GI50 [34]: 0.0517 µM
- TGI [34]: 1.44 µM
- GI50 [35]: 1.79 µM
- TGI [35]: 3.18 µM
